Measurements published in patent US10765747B2 (SWEDISH ORPHAN BIOVITRUM AB (PUBL), priority 2004, dated 2020).
Where two headings read alike, the source gives them in different places.

Legend:
[1] = molecular target: T1, anion binding site on IL-1ra (Homo sapiens, UniProt P18510); assay: biochemical; conditions: K^dL, Kd of citrate (y-intercept of K^dLapp plot)
Description: (§2) After spinning, about half of the solution passed through the filter as filtrate, while the remaining solution remained above the filter as retentate.
(§3) K^dL is the Kd for ligand binding to protein and is equal to the concentration of P (free protein) times the concentration of L (free ligand), divided by the concentration of PL (protein bound to ligand). K^dX is the Kd for competitive anion binding to protein and is equal to the concentration of P (free protein) times the concentration of X (free competing anion), divided by concentration of PX (protein bound to competing anion).
(§4) By replacing the (PX) term with (Xfree)(Pfree)/K^dX, which is derived from the equilibrium equation shown above, the expression for K^dLapp can be reduced to: K^dLapp=K^dL[1+(Xfree/K^dX)] Thus, if K^dLapp is plotted versus Xfree, the y-intercept will be equal to K^dL and the slope will be equal to K^dL/K^dX. Rearranging, K^dX will be equal to the y-intercept divided by the slope.
(§5) The concentration of free protein is calculated to be the total concentration of protein in the sample minus the concentration of bound protein (which is equal to the concentration of bound ligand). […] In other words, Xfree=Xtotal−ΔXbound as Xtotal is increased.

[2] = pH 6.5 and 39° C., estimated from literature-reported pKas
IL-1ra [3] = molecular target: T2, IL-1ra (Homo sapiens, UniProt P18510); conditions: for reduction in the rate of aggregation of IL-1ra: 10 mM accessory molecule
T2 sequence (P18510 with tags, fused parts or gaps): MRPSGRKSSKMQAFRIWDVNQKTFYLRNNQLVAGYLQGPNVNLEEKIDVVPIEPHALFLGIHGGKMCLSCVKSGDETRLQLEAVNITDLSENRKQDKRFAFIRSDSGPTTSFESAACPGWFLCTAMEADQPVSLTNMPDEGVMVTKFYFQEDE
Description: The rate of aggregation was determined as the slope of the linear region of the saturation curve calculated using the SoftMax Pro program (Molecular Devices).

IL-1ra [4] = molecular target: T2, IL-1ra; assay: Derivatization of IL-1ra with methyl acetyl phosphate (MAP) in various buffers, reverse-phase HPLC; parameters: additional N-terminal methionine (not a tag proper); host or cells: E. coli (stated for anakinra in the background); conditions: for rate of derivatization of IL-1ra with MAP compared with phosphate buffer: pH 6.3, 6.5, 6.7; for rate of derivatization of IL-1ra with MAP in 20 mM compared with 10 mM buffer: pH 6.5
Description: IL-1ra was derivatized with MAP in the presence of citrate or phosphate as follows. […] The reaction was incubated at 37° C. and 25 μl aliquots were taken using an HPLC autosampler at 0, 45, 90, 135, 180, 225, and 270 minutes. Each aliquot was analyzed by reverse-phase HPLC using an Agilent 110 HPLC equipped with a Jupiter 5u C4 300A reverse-phase HPLC column (4.6×250 mm, Phenomenex, Torrance, Calif.), an on-line UV detector and a temperature-controlled 100-well sample tray set at 37° C. The flow rate was set at 1 ml/min and the column was maintained at a temperature of 50° C. The column was pre-equilibrated for 15 min (flow rate 1 ml/min) with 65% buffer A (0.1% trifluoroacetic acid (TFA) in water) and 35% buffer B (90% acetonitrile, 0.1% TFA in water). After loading, the analytes were eluted using a gradient ramping from 35% to 50% buffer B (90% acetonitrile, 0.1% TFA in water) over 25 minutes.
(§1) The reaction was incubated at 37° C. and 25 μl aliquots were taken using an HPLC autosampler at 0, 45, 90, 135, 180, 225, and 270 minutes. Each aliquot was analyzed by reverse-phase HPLC as described above for derivatization in the presence of citrate.
as §1, with “citrate. […] Four weakly resolved peaks were identified in this experiment and are indicated on FIG. 15.” for “citrate.”
In particular, each chromatogram from FIG. 16A was deconvoluted using PeakFit™ (Systat Software Inc.). The area under the each of the deconvoluted peaks (peaks 1-4) at each time point (0, 45, 90, 135, 180, 225, and 270 minutes) was then integrated. Deconvoluted peaks 1-4 are labeled on FIG. 16B and the integrated area under each one is shown below. […] The integrated area of deconvoluted peak 4 at time points 0, 45, 90, 135, 180 minutes was then plotted against the incubation time of the reaction that produced that peak. The resulting line has a slope of 68.931 hour^−1.
The rate of derivatization of IL-1ra with MAP was then calculated for various experiments in the presence of various buffers and at various pHs, according to the methods discussed above.

IL-1ra [5] = molecular target: T2, IL-1ra; assay: Citrate binding to IL-1ra (spin column filtration, HPLC, Scatchard plot)
[6] = molecular target: T1, anion binding site on IL-1ra; conditions: for Kd: read-out: K^dX, Kd for competing anion binding to the anion binding site of IL-1ra, competition with 10 mM citrate, 1 mM IL-1ra, pH 6.5, 70 mM NaCl
Description: as §2, §3, §4, §5

[7] = pH 6.5 and 39° C.; cited from earlier work
[8] = pH 6.5, 29° C., IL-1ra 140 mg/ml

T1 sequence (P18510 with tags, fused parts or gaps): as above

O=C(O)CC(O)(CC(=O)O)C(=O)O [citrate]
Kd ([1]; phosphate competition experiment, data not shown): 5 mM | Kd ([1]; pyrophosphate competition experiment): 3.89 mM | predicted negative charges [2]: three negative charges | reduction in the rate of aggregation of IL-1ra (IL-1ra [3]; [8]): ~90% | rate of derivatization of IL-1ra with MAP compared with phosphate buffer (IL-1ra [4]): slower | rate of derivatization of IL-1ra with MAP in 20 mM compared with 10 mM buffer (IL-1ra [4]): slower | Kd (IL-1ra [5]): 3.85 mM | number of binding sites on IL-1ra (x-intercept of Scatchard plot) (IL-1ra [5]; pH 6.5, 70 mM NaCl): 0.94

O=P(O)(O)OP(=O)(O)O [pyrophosphate]
predicted negative charges [2]: between two and three negative charges | reduction in the rate of aggregation of IL-1ra (IL-1ra [3]; [8]): ~90% | rate of aggregation of IL-1ra with increasing anion concentration, compared with phosphate buffer (IL-1ra [3]; 1 to 125 mM, 29° C.): decreased more rapidly | concentration at which the reduction in the rate of aggregation leveled off (IL-1ra [3]; [8]): 20 mM | competing with citrate for the citrate binding site on IL-1ra, compared with phosphate ([6]; 0-20 mM competing anion, 10 mM citrate): more effective | Kd [6]: 2.99 mM | rate of derivatization of IL-1ra with MAP compared with phosphate buffer (IL-1ra [4]): slower | rate of derivatization of IL-1ra with MAP in 20 mM compared with 10 mM buffer (IL-1ra [4]): slower | estimated pKa, first ionizable hydrogen [7]: 0.83 | estimated pKa, fourth ionizable hydrogen [7]: 9.46 | estimated pKa, second ionizable hydrogen [7]: 2.26 | estimated pKa, third ionizable hydrogen [7]: 6.72

IL-1ra: Purified human recombinant interleukin-1 receptor antagonist having the amino acid sequence of SEQ ID NO: 5 (anakinra)
rate of derivatization of IL-1ra with MAP (slope of integrated area of deconvoluted peak 4 versus incubation time) (IL-1ra [4]; 10 mM citrate, pH 6.5, 37° C., time points 0-180 minutes): 68.931 h⁻¹

phosphate
predicted negative charges [2]: predominantly one negative charge | reduction in the rate of aggregation of IL-1ra (IL-1ra [3]; [8]): ~20% | Kd [6]: 12.6 mM | level of derivatization with MAP at all positions except the N-terminal amine, compared with citrate or pyrophosphate (IL-1ra [4]; 10 mM buffer, 270 minutes, 37° C.): greater | extent of derivatization of IL-1ra with MAP compared with citrate (IL-1ra [4]; 10 mM buffer, pH 6.3, 6.5 or 6.7, 5.5 hours): greater extent
